Measurements from US10947271B2, “Antibacterial agents” (THE UNIVERSITY OF QUEENSLAND, priority 2014, dated 2021).

Legend:
MRSA (Strain ATCC 43300) = experiment: Murine thigh infection model (MRSA); format: in vivo, Staphylococcus aureus; settings: neutropenic CD1 mice
Protocol: Summary: Adult (8 week old) female CD1 mice were made neutropenic by two injections of cyclophosphamide 4 days and 1 day prior to infection. An inoculum of 10^5 cfu MRSA (Strain ATCC 43300) was injected intramuscularly into both left and right thighs of all mice. […] After an additional two hours, a 50 μL sample of blood was obtained from the tail bleed to analyse for presence of antibiotic compound. […] Thighs were then removed, weighed and homogenised in a fixed volume of saline. The homogenate solution was filtered, diluted and seeded onto agar plates, which were incubated overnight at 37° C. Colony counts were used to establish the cfu in the thigh homogenates, the cfu/thigh, and the cfu/g of thigh.
Compound preparation: Cyclophosphamide monohydrate (Sigma) was dissolved in sterile saline to a concentration of 30 mg/mL. Likewise, vancomycin (Sigma) and MCC compounds were also dissolved in sterile saline to a final concentration of 60 mg/mL and 18.5 mg/mL respectively. All compounds were prepared in low binding Eppendorf tubes and kept at −20° C. until used.
In vivo experimental assay: Eight week old female outbred CD1 mice (UQBR-AIBN) were rendered neutropenic by injecting two doses of cyclophosphamide intraperitoneally 4 days (150 mg/kg) and 1 day (100 mg/kg) prior to experimental infection. The infection model using MRSA was established by intramuscular injection of 50 μL of early-log-phase bacterial MRSA suspension (around 2×10^6 cfu/mL) in saline into both thigh muscles. […] Untreated animals received equivalent volume of saline (Baxter). The mice were monitored for signs of normal behaviour (i.e. grooming, eating, drinking, sleeping, and alertness) during and following dosing. Two hours after saline/antibiotic treatment, 0.05 mL of blood was collected by tail incision. 24 hours after MRSA infection, mice were euthanized and blood collected from the heart by cardiac puncture (saline group) or by tail incision (Vancomycin and MCC compound treated groups) as outlined in FIG. 1. For each mouse, both thighs were collected aseptically by cutting the leg at the hip and knee, placed in 10 mL of cold sterile saline and the individual weight of each thigh recorded.
Preparation of injectable MRSA solution: An MRSA subculture bacterial isolate (ATCC43300) was taken from the storage at −80° C. and freshly seeded on agar plates for overnight (O/N) growth. From the O/N culture preparation, a single colony was diluted into 10-12 mL of Mueller Hinton broth (MHB) and incubated O/N at 37° C. A log-phase subculture was obtained by adding 100 μL of O/N subculture in 10 mL MHB and incubated for a further 2-3 hours. Finally, the OD600 value of the bacterial suspension was determined and the colony forming units per millilitre (cfu/mL) extrapolated. A full dilution of the bacterial cell suspension in saline was achieved by washing (3220×g for 10 min) and the OD600 in saline determined. The suspension was then diluted out accordingly in order to achieve a 2×10^6 cfu/mL solution (10^5 cfu in 50 μL/thigh).
Thus, 10 μL of the injectable MRSA suspension was diluted down to 10-1000 fold, each dilution plated out onto agar plates and incubated at 37° C. for 24 hours.
Thigh homogenates and CFU determination: Thighs were homogenized at 20,000 rpm for 15 seconds using a Polytron MR2500E using a […] probe (all Kinematica).

[1] = system: Staphylococcus aureus MRSA ATCC 43300; experiment: MIC assay, S. aureus MRSA ATCC 43300; format: cell-based; settings: 24 h incubation, visual reading
Summary of the method: (§1)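 MHB broth microdilution, twofold series, compounds 8–0.003 μg/ml; mid-log inoculum 5×10e5 CFU/mL; 37° C, 24 h; MIC read visually as lowest concentration without growth.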

[2] = system: Streptococcus pneumoniae MDR ATCC 700677; experiment: MIC assay, S. pneumoniae MDR ATCC 700677; format: cell-based; settings: 24 h incubation, visual reading
Summary of the method: as §1

[3] = system: Enterococcus faecium MDR Van A ATCC 51559; experiment: MIC assay, E. faecium MDR Van A ATCC 51559; format: cell-based; settings: 24 h incubation, visual reading
Summary of the method: as §1

[4] = single subcutaneous dose 10 mg/kg

SMILES | Average Reduction log Δcfu MRSA/thigh after 26 h (MRSA (Strain ATCC 43300); [4]) | Minimum Inhibitory Concentration (MIC) Staph. aureus ATCC43300 [1] | Minimum Inhibitory Concentration (MIC) S. pneumoniae ATCC 700677 [2] | Minimum Inhibitory Concentration (MIC) E. faecium ATCC51559 [3] | Average Reduction log Δcfu MRSA/thigh after 26 h (MRSA (Strain ATCC 43300); single subcutaneous dose 25 mg/kg)
CCCCCCCCC(=O)N[C@@H](CCCCN)C(=O)N[C@@H](CCCCN)C(=O)N[C@@H](CCCCNC(=O)[C@H]1NC(=O)[C@H]2NC(=O)[C@H](NC(=O)[C@@H]3NC(=O)[C@H](CC(N)=O)NC(=O)[C@H](NC(=O)[C@@H](CC(C)C)NC)[C@H](O)c4ccc(c(Cl)c4)Oc4cc3cc(c4O[C@@H]3O[C@H](CO)[C@@H](O)[C@H](O)[C@H]3O[C@H]3C[C@](C)(N)[C@H](O)[C@H](C)O3)Oc3ccc(cc3Cl)[C@H]2O)c2ccc(O)c(c2)-c2c(O)cc(O)cc21)C(=O)O [MCC_005226] | x (x = 0-2) | xxx (xxx = 0.1-<1) | xxx (xxx = 0.1-<1) | x (x = >4) | 
CCCCCCCCC(=O)N[C@@H](CCCCN)C(=O)N[C@@H](CCCCN)C(=O)NCCNC(=O)[C@H]1NC(=O)[C@H]2NC(=O)[C@H](NC(=O)[C@@H]3NC(=O)[C@H](CC(N)=O)NC(=O)[C@H](NC(=O)[C@@H](CC(C)C)NC)[C@H](O)c4ccc(c(Cl)c4)Oc4cc3cc(c4O[C@@H]3O[C@H](CO)[C@@H](O)[C@H](O)[C@H]3O[C@H]3C[C@](C)(N)[C@H](O)[C@H](C)O3)Oc3ccc(cc3Cl)[C@H]2O)c2ccc(O)c(c2)-c2c(O)cc(O)cc21 [MCC_005165] | xxx (xxx = 4-6) | xxxx (xxxx = 0.01-<0.1) | xxxx (xxxx = 0.01-<0.1) | x (x = >4) | 
CCCCCCCCCCCC(=O)N[C@@H](CCCCN)C(=O)N[C@@H](CCCCN)C(=O)N[C@@H](CCCCNC(=O)[C@H]1NC(=O)[C@H]2NC(=O)[C@H](NC(=O)[C@@H]3NC(=O)[C@H](CC(N)=O)NC(=O)[C@H](NC(=O)[C@@H](CC(C)C)NC)[C@H](O)c4ccc(c(Cl)c4)Oc4cc3cc(c4O[C@@H]3O[C@H](CO)[C@@H](O)[C@H](O)[C@H]3O[C@H]3C[C@](C)(N)[C@H](O)[C@H](C)O3)Oc3ccc(cc3Cl)[C@H]2O)c2ccc(O)c(c2)-c2c(O)cc(O)cc21)C(=O)O [MCC_000347] | xxxx (xxxx = >6) | xxxxx (xxxxx = <0.01) | xxxx (xxxx = 0.01-<0.1) | xx (xx = 1-4) | 
CNC(CC(C)C)C(=O)NC1C(=O)NC(CC(N)=O)C(=O)NC2C(=O)NC3C(=O)NC(C(=O)NC(C(=O)NCCCNC(=O)C(CCCCN)NC(=O)c4ccc(Oc5ccccc5)cc4)c4cc(O)cc(O)c4-c4cc3ccc4O)C(O)c3ccc(c(Cl)c3)Oc3cc2cc(c3OC2OC(CO)C(O)C(O)C2OC2CC(C)(N)C(O)C(C)O2)Oc2ccc(cc2Cl)C1O (stereo not shown) [MCC_007407] | xxx (xxx = 4-6) | xxxx (xxxx = 0.01-<0.1) | xxxx (xxxx = 0.01-<0.1) | x (x = >4) | 
CCCCCCCC(=O)N[C@@H](CCCCN)C(=O)NCCCNC(=O)[C@H]1NC(=O)[C@H]2NC(=O)[C@H](NC(=O)[C@@H]3NC(=O)[C@H](CC(N)=O)NC(=O)[C@H](NC(=O)[C@@H](CC(C)C)NC)[C@H](O)c4ccc(c(Cl)c4)Oc4cc3cc(c4O[C@@H]3O[C@H](CO)[C@@H](O)[C@H](O)[C@H]3O[C@H]3C[C@](C)(N)[C@H](O)[C@H](C)O3)Oc3ccc(cc3Cl)[C@H]2O)c2ccc(O)c(c2)-c2c(O)cc(O)cc21 [MCC_005202] | xx (xx = 2-4) | xxx (xxx = 0.1-<1) | xxx (xxx = 0.1-<1) | x (x = >4) | 
CNC(=O)[C@H](CCCCNC(=O)[C@H]1NC(=O)[C@H]2NC(=O)[C@H](NC(=O)[C@@H]3NC(=O)[C@H](CC(N)=O)NC(=O)[C@H](NC(=O)[C@@H](CC(C)C)NC)[C@H](O)c4ccc(c(Cl)c4)Oc4cc3cc(c4O[C@@H]3O[C@H](CO)[C@@H](O)[C@H](O)[C@H]3O[C@H]3C[C@](C)(N)[C@H](O)[C@H](C)O3)Oc3ccc(cc3Cl)[C@H]2O)c2ccc(O)c(c2)-c2c(O)cc(O)cc21)NC(=O)[C@H](CCCCN)NC(=O)[C@H](CCCCN)NC(=O)[C@H](CCCCNC(=O)c1ccc(Oc2ccccc2)cc1)NC(=O)c1ccc(Oc2ccccc2)cc1 [MCC_000310] |  | xxxxx (xxxxx = <0.01) | xxxxx (xxxxx = <0.01) | xxx (xxx = 0.1-<1) | x (x = 0-2)
CCCCCCCCCC(=O)N[C@@H](CCCNC(=N)N)C(=O)NCCCNC(=O)[C@H]1NC(=O)[C@H]2NC(=O)[C@H](NC(=O)[C@@H]3NC(=O)[C@H](CC(N)=O)NC(=O)[C@H](NC(=O)[C@@H](CC(C)C)NC)[C@H](O)c4ccc(c(Cl)c4)Oc4cc3cc(c4O[C@@H]3O[C@H](CO)[C@@H](O)[C@H](O)[C@H]3O[C@H]3C[C@](C)(N)[C@H](O)[C@H](C)O3)Oc3ccc(cc3Cl)[C@H]2O)c2ccc(O)c(c2)-c2c(O)cc(O)cc21 [MCC_005481] | xxx (xxx = 4-6) | xxxxx (xxxxx = <0.01) | xxxx (xxxx = 0.01-<0.1) | x (x = >4) | 
CCCCCCCCCC(=O)N[C@@H](CCCCN)C(=O)N[C@@H](CCCCN)C(=O)N[C@@H](CCCCN)C(=O)NCCNC(=O)[C@H]1NC(=O)[C@H]2NC(=O)[C@H](NC(=O)[C@@H]3NC(=O)[C@H](CC(N)=O)NC(=O)[C@H](NC(=O)[C@@H](CC(C)C)NC)[C@H](O)c4ccc(c(Cl)c4)Oc4cc3cc(c4O[C@@H]3O[C@H](CO)[C@@H](O)[C@H](O)[C@H]3O[C@H]3C[C@](C)(N)[C@H](O)[C@H](C)O3)Oc3ccc(cc3Cl)[C@H]2O)c2ccc(O)c(c2)-c2c(O)cc(O)cc21 [MCC_005181] | xx (xx = 2-4) | xxxxx (xxxxx = <0.01) | xxxx (xxxx = 0.01-<0.1) | xx (xx = 1-4) | 
CN[C@H](CC(C)C)C(=O)N[C@H]1C(=O)N[C@@H](CC(N)=O)C(=O)N[C@H]2C(=O)N[C@H]3C(=O)N[C@H](C(=O)N[C@H](C(=O)NCCCC[C@H](NC(=O)[C@H](CCCCN(C)C)NC(=O)c4ccc(Oc5ccccc5)cc4)C(=O)O)c4cc(O)cc(O)c4-c4cc3ccc4O)[C@H](O)c3ccc(c(Cl)c3)Oc3cc2cc(c3O[C@@H]2O[C@H](CO)[C@@H](O)[C@H](O)[C@H]2O[C@H]2C[C@](C)(N)[C@H](O)[C@H](C)O2)Oc2ccc(cc2Cl)[C@H]1O [MCC_007221] | x (x = 0-2) | xxx (xxx = 0.1-<1) | xx (xx = 1-4) | x (x = >4) | 
CCCCCCCCC(=O)NC(CCCCN(C)C)C(=O)NCCCNC(=O)C1NC(=O)C2NC(=O)C(NC(=O)C3NC(=O)C(CC(N)=O)NC(=O)C(NC(=O)C(CC(C)C)NC)C(O)c4ccc(c(Cl)c4)Oc4cc3cc(c4OC3OC(CO)C(O)C(O)C3OC3CC(C)(N)C(O)C(C)O3)Oc3ccc(cc3Cl)C2O)c2ccc(O)c(c2)-c2c(O)cc(O)cc21 (stereo not shown) [MCC_007338] | xx (xx = 2-4) | xxx (xxx = 0.1-<1) | xxx (xxx = 0.1-<1) | x (x = >4) | 
